Our source for the EC50 values is PubChem BioAssay AID743059 (The Scripps Research Institute Molecular Screening Center, 2013).

Activity calls are given as the source filed them.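 How the source made its calls: active means EC50 at or below 10 µM; inactive means EC50 above 10 µM.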 A value given as a limit tells only on which side of the number the result lay.

For the experiment, the target named is Nuclear hormone receptor DAF-12 (Heterodera glycines). Kind of experiment: H. glycines DAF-12 receptor agonist potency, dose response, cell-based, luminescence, HEK293 (AID 743059).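 Further: agonist potency for compounds that raise hgDAF-12 reporter luminescence.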 The following applies: HEK293 hgDAF-12 reporter, luciferase luminescence.
Usually EC50 stands for the concentration needed to bring the measured effect to its halfway point. Regarding `Cc1ccc(-c2csc(NC(=O)/C=C/c3ccco3)c2C(=O)O)cc1`, the EC50 is > 67.6 µM (inactive).
In the case of `C(=N\NC1=Nc2cccc3cccc1c23)/c1ccccc1`, the EC50 is > 67.5 µM (inactive).
For `Cc1nn(C(=O)c2cccs2)c(N)c1-c1ccccc1`, the EC50 was > 67.5 µM (inactive).
In the case of `COc1cccc(-c2nc(-c3ccc(Br)o3)no2)c1` it was > 67.5 µM (inactive); in that of `Cc1scc(C(=O)N/N=C/c2ccsc2)c1C`, > 67.6 µM (inactive); in that of `c1cncc(-c2noc(-c3ccc4ccccc4c3)n2)c1`, > 67.5 µM (inactive).
In the case of `OCc1ccc(N=Nc2ccccc2)cc1` it was > 67.5 µM (inactive).
In the case of `N#C/C(=N\Nc1ccc(Cl)cc1)C(=N)N1CCCCCC1` it was > 67.5 µM (inactive); in that of `Cc1cccc(/C(N)=N/OC(=O)c2cccs2)c1`, > 67.5 µM (inactive).
With `COCCNC(=O)/C(C#N)=C/c1cc(C)n(C2CCCCC2)c1C`, the EC50 was > 67.5 µM (inactive).
Regarding `Oc1ccccc1-c1cc(-c2ccc3c(c2)OCCO3)n[nH]1`, the EC50 was > 67.6 µM (inactive).
In the case of `ON=C(CCc1ccccc1)c1ccccc1` it was > 67.5 µM (inactive); in that of `NC(=Nc1ccccc1)NC(=O)c1nc(Cl)c(N)nc1N`, > 67.5 µM (inactive); in that of `CN(C)/C=N/C(=S)Nc1ccc(Cl)cc1`, > 67.5 µM (inactive).
For the molecule `COc1ccc2oc(C(=O)Nc3nccs3)c(C)c2c1`, the EC50 was > 67.5 µM (inactive).
On to `CS(=O)(=O)c1ccc2nc(NC(=O)Nc3ccccc3F)sc2c1`, for which the EC50 was > 67.5 µM (inactive).
In the case of `O=C(CCCc1ccccc1)NC12CC3CC(CC(C3)C1)C2` it was > 67.5 µM (inactive).
As for `O=C(CC(=O)c1cccs1)c1ccncc1`, the EC50 was > 67.5 µM (inactive).
Take `O=[N+]([O-])c1ccc2c(c1)Nc1nc3ccccc3nc1N2`: the EC50 was > 67.5 µM (inactive).
Regarding `Oc1[nH]c2ccccc2c1C=Nc1ccccc1`, the EC50 was > 67.5 µM (inactive).
In the case of `Cc1ccc(Nc2ncccc2C(N)=O)cc1` it was > 67.4 µM (inactive); in that of `O=C(NCCCn1ccnc1)c1cc(-c2ccccc2)on1`, 9.16 µM; in that of `Nc1c(-c2cccs2)cnc2c(-c3ccc(F)cc3)cnn12`, > 67.5 µM (inactive).
For the molecule `CC1=CN2C(=N)/C(=C/c3ccco3)C(=O)N=C2S1`, the EC50 was > 67.5 µM (inactive).
On to `Cc1cc(C)nc(-n2nc(C)c(Sc3ccc(F)cc3)c2N)n1`, for which the EC50 was > 67.5 µM (inactive).
In the case of `COc1ccc2oc3cc(NCCN(C)C)ccc3c(=O)c2c1` it was “inactive”; in that of `Nc1nc(Nc2ccc(Cl)cc2)nc2ccccc12`, > 67.5 µM (inactive).
For `CC1CCc2c(sc(NC(=O)C3=COCCO3)c2C(N)=O)C1` (configuration not stated) the value was > 67.5 µM (inactive); for `CSc1ccc(/C=N/Nc2ccc(Cl)c(C(=O)O)c2)cc1`, > 67.5 µM (inactive); for `COc1ccc(Oc2cnn(-c3ccccc3)c(=O)c2Br)cc1`, > 67.5 µM (inactive).
In the case of `Cc1cc(C(=O)NC2CCCCC2)c(C)n1-c1ccc(F)cc1` it was > 67.5 µM (inactive); in that of `O=c1c2ccccc2nnn1CSc1ccccc1F`, > 67.5 µM (inactive); in that of `CN(C)c1ccc(C(C#N)c2ccccc2)nn1` (configuration not stated), > 67.5 µM (inactive).
`Cc1ccn(-c2cccc(-n3ccc(C)n3)n2)n1`: the EC50 was > 67.6 µM (inactive).
Regarding `Nc1ccc(C(=O)Nc2ccccc2N)cc1`, the EC50 is 4.24 µM.
In the case of `Cc1ccsc1/C=N/NC(=O)c1sccc1C` it was > 67.5 µM (inactive).
For `COc1cccc(/C=C/c2ccc3cccc(O)c3n2)c1` the value was > 67.5 µM (inactive).
In the case of `C/C(=N/OCc1ccc(Br)cc1)c1ccccn1` it was > 67.6 µM (inactive); in that of `Cc1ccc(/C=N/N=C/c2ccc(C)s2)s1`, > 67.5 µM (inactive).
As for `Nc1ncc(Br)cc1N=Cc1ccccc1`, the EC50 was > 67.5 µM (inactive).
With `Brc1ccc(-c2noc(-c3ccccc3)n2)o1`, the EC50 was > 67.6 µM (inactive).
In the case of `Cc1ccc(-n2ncc3ccccc3c2=O)cc1Cl` it was > 67.6 µM (inactive); in that of `Nc1c2c(nc3sc4c(c13)CCCC4)CCCCC2`, > 67.6 µM (inactive); in that of `Cc1nn(-c2ccccc2)c(Cl)c1/C=N/Nc1ccc(Cl)c(C(=O)O)c1`, > 67.5 µM (inactive).
`COCCNC(=O)/C(C#N)=C/c1cc(C)n(-c2ccc(C)cc2)c1C`: the EC50 is > 67.5 µM (inactive).
In the case of `Brc1ccc(-c2noc(-c3ccccn3)n2)o1` it was > 67.5 µM (inactive); in that of `Cc1ccc(-c2cn3cccnc3n2)cc1`, > 67.6 µM (inactive).
In the case of `Cc1cccc(Nc2n[nH]c(C)c2[N+](=O)[O-])c1` it was > 67.5 µM (inactive); in that of `N=C1c2ccccc2CN1CC(=O)c1ccccc1`, > 67.6 µM (inactive); in that of `CC/C(=N\NC(=O)c1ccoc1C)c1ccc(C)o1`, > 67.5 µM (inactive).
Take `CCCSc1nsc(NC(=O)CC)n1`: the EC50 was > 67.5 µM (inactive).
For `Clc1ccc(OCCSc2ncccn2)c(Br)c1` the value was > 67.5 µM (inactive); for `COC1=C/C(=C/c2c(O)c(C#N)c3ccccn23)C=CC1=O`, > 67.5 µM (inactive); for `Cc1cc2nc(-c3cccnc3SCC(=O)NCc3ccco3)[nH]c2cc1C`, > 67.6 µM (inactive).
Turning to `Cc1ccc(CN2CCN(CC(C)C)C(CCO)C2)s1` (configuration not stated), the EC50 is > 67.6 µM (inactive).
On to `O=C(NNCc1ccccc1)c1ccccn1`, for which the EC50 is > 67.6 µM (inactive).
Turning to `CCOC(=O)c1sc2nc3c(cc2c1N)COC(C)(CC)C3` (configuration not stated), the EC50 is > 67.5 µM (inactive).
Regarding `Cc1nnc(SCC(=O)Nc2nsc(-c3ccc(C(C)(C)C)cc3)n2)s1`, the EC50 is > 67.5 µM (inactive).
In the case of `Nc1nn(-c2cccc(F)n2)cc1-c1ccccc1` it was > 67.5 µM (inactive); in that of `CC(C)C(N)c1csc(Nc2nncc3ccccc23)n1` (configuration not stated), > 67.1 µM (inactive).
For the molecule `CCc1sc(C(=O)Nc2ncccc2O)cc1C`, the EC50 result is “inactive”.
In the case of `c1ccc([C@H]2CN3C(=N2)Sc2ccccc23)cc1`, the EC50 is > 67.1 µM (inactive).
On to `O=C(/C=C/c1ccccc1)N1CCC(c2ccccc2)C1` (configuration not stated), for which the EC50 was > 67.5 µM (inactive).
Regarding `CCOc1ccc2nc(NC(=O)Nc3cccs3)sc2c1`, the EC50 is > 67.5 µM (inactive).
As to `Cc1cc(-c2nc3cccnc3s2)ccc1NS(=O)(=O)c1cccs1`, the EC50 is > 67.5 µM (inactive).
For `O=C(NCCc1ccccc1)c1cc(-c2ccco2)on1` the value was 7.6 µM; for `CCCCSc1ncnc2c1ncn2C1CCCCO1` (configuration not stated), > 67.4 µM (inactive).
As to `CCOC(=O)c1cn[nH]c1NC(=S)Nc1ccccc1`, the EC50 was > 67.6 µM (inactive).
Consider `O=C(Nc1ccccn1)c1csc2c1CCCC2`, for which the EC50 is > 67.5 µM (inactive).
For `CCc1ccc2oc(-c3cccc(N)c3)nc2c1` the value was > 67.6 µM (inactive); for `O=c1[nH]cnc2cc(-c3ccccc3)sc12`, > 67.5 µM (inactive); for `Cc1ccc(/C(N)=N/OC(=O)c2cccs2)cc1`, > 67.6 µM (inactive).
Take `O=[N+]([O-])c1cccnc1NCCNc1ncc(C(F)(F)F)cc1Cl`: the EC50 is > 67.5 µM (inactive).
In the case of `Cc1ccc(/C=N/NC(=O)c2ccoc2C)s1` it was > 67.6 µM (inactive).
Take `C#CCNC(=O)C[C@H]1C[C@@]2(C(=O)OC)C(=C[C@H](C(C)C)O[C@@H]2C2CC2)N(CCCCCCCC)C1=O`: the EC50 is > 67.5 µM (inactive).
As for `COCC1CCN(Cc2nc(-c3cccs3)no2)C1` (configuration not stated), the EC50 is > 67.5 µM (inactive).
With `CN1CCN(/C=N/c2sc3c(c2C#N)CCCCC3)CC1`, the EC50 is > 67.5 µM (inactive).
For `Cc1ccc(NC(=S)N/C(=N/S(=O)(=O)c2ccccc2)c2ccccc2)cc1` the value was > 67.5 µM (inactive); for `Cc1cc(OCc2cc(C(=O)NCc3cc(C(C)C)no3)no2)cc(C)c1Cl`, > 67.5 µM (inactive).
In the case of `Nc1c(OS(=O)(=O)c2ccccc2)cccc1OS(=O)(=O)c1ccccc1`, the EC50 was > 67.5 µM (inactive).
In the case of `c1ccc(CSc2ccc(-c3ccccn3)nn2)nc1`, the EC50 is > 67.5 µM (inactive).
Regarding `C/C(=N/NC(=O)c1cc(C(C)C)[nH]n1)c1cccs1`, the EC50 was > 67.6 µM (inactive).
Consider `Cc1cc(N=Nc2ccc3ccccc3c2)ccc1O`, for which the EC50 is > 67.6 µM (inactive).
For `O=c1c2ccccc2nnn1CCc1ccccc1` the value was > 67.4 µM (inactive); for `Cc1c(C(=O)Nc2ccccc2)csc1-c1ccccc1`, > 67.5 µM (inactive); for `Cc1ccc(/C=N/NC(=O)c2ccccn2)s1`, > 67.6 µM (inactive).
On to `Cc1ccc(-c2onc3ccc(C(=O)O)cc23)cc1`, for which the EC50 was > 67.6 µM (inactive).
In the case of `Fc1ccccc1CSc1ncnc2c1ncn2C1CCCCO1` (configuration not stated) it was > 67.6 µM (inactive); in that of `Cc1ccc(S(=O)(=O)/N=C(/NC(=S)Nc2ccccc2)c2ccccc2)cc1`, > 67.5 µM (inactive).
In the case of `O=c1c2cc(-c3ccccc3)sc2nc2n1CCC2` it was > 67.5 µM (inactive); in that of `OCCN1CCN(c2cnc(-c3ccsc3)cn2)CC1`, > 67.5 µM (inactive).
For the molecule `Cc1ccc(N=Nc2ccc(O)cc2)c(Br)c1`, the EC50 was > 67.5 µM (inactive).
For `CCN(CC)S(=O)(=O)c1ccc(C(=O)OCC(=O)Nc2ccc(-c3nc4ccc(C)cc4s3)cc2)cc1` the value was > 67.5 µM (inactive); for `Cc1nc2sc(-c3ccccc3)nn2c(=O)c1Br`, > 67.5 µM (inactive); for `Cc1ccnc(NC(=O)CCNS(=O)(=O)c2ccc(C)c(C)c2)c1`, > 67.6 µM (inactive).
With `CCNC(=S)NNC(=O)c1cc(-c2ccc(OCC)cc2)nc2ccccc12`, the EC50 is > 67.5 µM (inactive).
For `Oc1ccccc1-c1cc(-c2ccc(Cl)cc2)n[nH]1`, the EC50 was > 67.5 µM (inactive).
